Measurements reported in patent US20240317689A1, “POTASSIUM CHANNEL MODULATOR, COMPOSITION AND APPLICATION” (NEUSHEN THERAPEUTICS (SHANGHAI) CO., LTD, priority 2021, published 2024).

How the values were obtained:
KCNQ2/3 = target: T1, KCNQ2/3 (Homo sapiens, UniProt O43525+O43526); assay: Half-maximal activation voltage left shift assay (whole-cell patch clamp, hKCNQ-CHO cells); format: cell-based
T1 construct: expressed in transfected cells; host or cells: CHO cells (hKCNQ-CHO)
Procedure: Example 65: Half-Maximal Activation Voltage Left Shift Assay
(§1) hKCNQ-CHO cells were cultured at 37° C. in a humidified environment of 5% CO2.
• a) Extracellular fluid (mM): NaCl 145, KCl 4, CaCl2 2, MgCl2 1, Glucose 10, HEPES 10. The pH value of the extracellular fluid was adjusted to 7.4 with NaOH, and the osmotic pressure was adjusted to about 295 mOsm. • b) Intracellular fluid (mM): KOH 31.25, KCl 120, EGTA 10, MgCl2 1.75, CaCl2 5.374, HEPES 10, Na-ATP 4. The pH value of the intracellular fluid was adjusted to 7.4 with HCl, and the osmotic pressure was adjusted to about 285 mOsm. • c) The extracellular fluid should be prepared once a week, and the intracellular fluid should be aliquoted and stored at −20° C. after preparation.
(§2) The model positive reference compound Retigabine (RTG) was dissolved with 100% DMSO and configured as a 10 mM working solution. The test compounds were dissolved with 100% DMSO and configured as a 10 mM working solution. The final concentration of DMSO in the test solution should be less than 0.3%.
(§3) Whole-cell patch clamp was performed at room temperature. The electrical signals recorded with the EPC 10 USB amplifier (HEKA Elektronik, Germany) were filtered by a 3 kHz low-pass filter, and finally recorded in PatchMaster 2×90.5 software (HEKA Elektronik, Germany). At this step, the quality control standard was that the cell high-resistance sealing was greater than 500 MOhms, and the detection current was greater than 0.4 nA.
(§4) The recording electrodes were pulled out and polished with a vertical puller (NARISHIGE PC-10, Japan) using a borosilicate glass capillary (GC150tF-10, Harvard Apparatus Co., UK). At this step, the quality control standard was that the electrode resistance was between 2 MΩ and 5 MΩ.
(§5) During the recording process of the whole-cell patch clamp, a continuous perfusion system (BT100-2J, LongerPump, China) was used to continuously perfuse the extracellular fluid. The perfusion system was installed on the stage of an upright microscope (FN-S2N, Nikon, Japan), and the perfusion head was manually positioned under the microscope.
The voltage command for detecting the amplitude of hKCNQ current was as follows: the cell was clamped from a potential of −80 mV, stepped to −120 mV, and then clamped continuously at increasing voltages of 10 mV per sweep until +60 mV, held for 1500 ms; and then the clamping voltage was lowered to −120 my and held for 500 ms; finally, the voltage returned to the clamping potential of −80 mV. The detection voltage command was repeated every 15,000 milliseconds, and the command was continuously executed during the compound test. The half-maximal voltage of the cell's hKCNQ was obtained by nonlinear fitting of the current amplitude at different clamping potentials (−120 mV to +60 mV).
Data analysis was performed using PatchMaster 2×90.5 software (HEKA Elektronik, Germany) and Excel 2013 (Microsoft, USA) software. For each cell's patch clamp recording, the half-maximal voltage (V½-test) of hKCNQ corresponding to the test compound concentration should be obtained. The left-shifted half-maximal voltage value ΔV½ (V1/2 Shift (mV)) was obtained by subtracting the half-maximal voltage of hKCNQ before compound action (V½-control) from V½-test.

[1] = target: T2, KCNQ2/3 potassium ion channel (Homo sapiens, UniProt O43525+O43526); assay: KCNQ2/3 potassium ion channel activation assay (whole-cell patch clamp, hKCNQ-CHO cells); format: cell-based; details: for activation at 0.05 µM: test concentration 0.05 μM; for activation at 0.05 µM / activation at 3 µM: read-out: Enhancment % (current enhancement multiple)
T2 construct: expressed in transfected cells; host or cells: CHO cells (hKCNQ-CHO)
Procedure: Example 64: KCNQ2/3 Potassium Ion Channel Activation Assay
as §1
• 2.1. Extracellular fluid (mM): NaCl 145, KCl 4, CaCl2 2, MgCl2 1, Glucose 10, HEPES 10. The pH value of the extracellular fluid was adjusted to 7.4 with NaOH, and the osmotic pressure was adjusted to about 295 mOsm. • 2.2. Intracellular fluid (mM (mmol/L)): KOH 31.25, KCl 120, EGTA 10, MgCl2 1.75, CaCl2 5.374, HEPES 10, Na-ATP 4. The pH value of the intracellular fluid was adjusted to 7.4 with HCl, and the osmotic pressure was adjusted to about 285 mOsm. • 2.3. The extracellular fluid should be prepared once a week, and the intracellular fluid should be stored at −20° C. after preparation.
as §2, §3, §4, §5
The voltage command for detecting the amplitude of hKCNQ current was as follows: the cell stepped from the clamping potential of −80 mV to −30 mV, and held for 1500 ms; and then the clamping voltage was lowered to −120 my and held for 500 ms; finally, the voltage returned to the clamping potential of −80 mV. The detection voltage command was repeated every 15,000 milliseconds, and the command was continuously executed during the compound test. The quality control standard for compound action stability was the current amplitude under 5 consecutive voltage commands, and the coefficient of variation of the current amplitude was <5%.
Data analysis was performed using PatchMaster 2×90.5 software (HEKA Elektronik, Germany) and Excel 2013 (Microsoft, USA) software. For each cell's patch clamp recording, the amplitude of the hKCNQ channel current (Itest) corresponding to the test compound concentration should be obtained. The enhanced channel current was obtained by subtracting the cell's original channel current (Icontrol) from Itest and dividing by Icontrol to obtain the current enhancement multiple. That is, the current enhancement multiple (Enhancment %)=(Itest −Icontrol)/Icontrol[…].

[2] = system: MES-induced epilepsy in mice; assay: MES mouse epilepsy model; format: in vivo; details: 5 mpk, electrical stimulation 30 minutes after administration
Procedure: Example 67: MES Mouse Epilepsy Model
• 1. The mice (10 mice per group) were transferred to the operating room to adapt to the environment 30 minutes before the experiment. • 2. The mice were administered the test compounds or positive drug (Valproate) at a specific time point. 30 minutes after the administration of Valproate or 30 minutes after the administration of the test compounds, electrical stimulation was given with ear electrodes. The stimulation parameters were a square wave with a total duration of 0.8 seconds, a frequency of 50 Hz, and an amplitude of 50 mA with an interval of 10 msec. • 3. The number and duration of hind limb tonic extension of the animal within 1 minute after the completion of the electrical stimulation was recorded, and the possible death and time of death were also recorded. • 4. After administration, the possible side effects induced by the drug were observed and recorded, and the side effects are divided into four levels: • None: Normal • Mild sedation • Moderate sedation • Severe sedation

Structure (SMILES)	activation at 3 µM ([1]; test concentration 3 μM) [%]	further results
CCC(C)Oc1ccc2c(c1)CCCN(c1cc(C)c(NC(=O)CC(C)(C)C)c(C)c1)C2 (centres unmarked) [Compound 004, N-(4-(7-(sec-butoxy)-1,3,4,5-tetrahydro-2H-benzo[c]azepin-2-yl)-2,6-dimethylphenyl)-3,3-dimethylbutanamide]	> 100	V1/2 Shift (mV) (KCNQ2/3; test concentration 50 nM): −11.76 mV; V1/2 Shift (mV) (KCNQ2/3; test concentration 300 nM): −23.56 mV; activation at 0.05 µM [1]: < 50%
Cc1cc(N2CCCc3cc(OC4CCCC4)ccc3C2)cc(C)c1NC(=O)CC(C)(C)C [Compound 011, N-(4-(7-(cyclopentyloxy)-1,3,4,5-tetrahydro-2H-benzo[c]azepin-2-yl)-2,6-dimethylphenyl)-3,3-dimethylbutanamide]	> 100	V1/2 Shift (mV) (KCNQ2/3; test concentration 50 nM): −2.92 mV; V1/2 Shift (mV) (KCNQ2/3; test concentration 300 nM): −21.98 mV; activation at 0.05 µM [1]: > 100%; Protection rate for tonic extension [2]: 90%
Cc1cc(N2CCCc3cc(OC45CC(C(F)F)(C4)C5)ccc3C2)cc(C)c1NC(=O)CC(C)(C)C [Compound 051, N-(4-(7-((3-(difluoromethyl)bicyclo[1.1.1]pentan-1-yl)oxy)-1,3,4,5-tetrahydro-2H-benzo[c]azepin-2-yl)-2,6-dimethylphenyl)-3,3-dimethylbutanamide]	> 100	–
COC(Oc1ccc2c(c1)CCCN(c1cc(C)c(NC(=O)CC(C)(C)C)c(C)c1)C2)C(F)(F)F (centres unmarked) [Compound 052, N-(2,6-dimethyl-4-(7-(2,2,2-trifluoro-1-methoxyethoxy)-1,3,4,5-tetrahydro-2H-benzo[c]azepin-2-yl)phenyl)-3,3-dimethylbutanamide]	> 100	–
Cc1cc(N2CCCc3cc(OCCCC(F)(F)F)ccc3C2)cc(C)c1NC(=O)CC(C)(C)C [Compound 060, N-(2,6-dimethyl-4-(7-(4,4,4-trifluorobutoxy)-1,3,4,5-tetrahydro-2H-benzo[c]azepin-2-yl)phenyl)-3,3-dimethylbutanamide]	> 100	–
Cc1cc(N2CCCc3cc(OCC(F)(F)CC(F)(F)F)ccc3C2)cc(C)c1NC(=O)CC(C)(C)C [Compound 062, N-(2,6-dimethyl-4-(7-(2,2,4,4,4-pentafluorobutoxy)-1,3,4,5-tetrahydro-2H-benzo[c]azepin-2-yl)phenyl)-3,3-dimethylbutanamide]	> 100	–
Cc1cc(N2CCCc3cc(OCCCCF)ccc3C2)cc(C)c1NC(=O)CC(C)(C)C [Compound 063, N-(4-(7-(4-fluorobutoxy)-1,3,4,5-tetrahydro-2H-benzo[c]azepin-2-yl)-2,6-dimethylphenyl)-3,3-dimethylbutanamide]	> 100	–
Cc1cc(N2CCCc3cc(F)ccc3C2)cc(C)c1NC(=O)CC(C)(C)C [a, reference compound]	–	Enhancment % (activation activity on KCNQ2/3 potassium ion channel) ([1]; test concentration 3 μM, numeric value): 41.39%

The next lines start with results.

activation at 3 µM ([1]; test concentration 3 μM) [%]	Structure (SMILES)	further results
> 100	Cc1cc(N2CCCc3cc(OCC(C)C(F)(F)F)ccc3C2)cc(C)c1NC(=O)CC(C)(C)C (centres unmarked) [Compound 053, N-(2,6-dimethyl-4-(7-(3,3,3-trifluoro-2-methylpropoxy)-1,3,4,5-tetrahydro-2H-benzo[c]azepin-2-yl)phenyl)-3,3-dimethylbutanamide]	–
> 100	Cc1cc(N2CCCc3cc(OCC4(C(F)(F)F)CC4)ccc3C2)cc(C)c1NC(=O)CC(C)(C)C [Compound 054, N-(2,6-dimethyl-4-(7-((1-(trifluoromethyl)cyclopropyl)methoxy)-1,3,4,5-tetrahydro-2H-benzo[c]azepin-2-yl)phenyl)-3,3-dimethylbutanamide]	–
> 100	Cc1cc(N2CCCc3cc(OC(C(F)(F)F)C(F)(F)F)ccc3C2)cc(C)c1NC(=O)CC(C)(C)C [Compound 055, N-(4-(7-((1,1,1,3,3,3-hexafluoropropan-2-yl)oxy)-1,3,4,5-tetrahydro-2H-benzo[c]azepin-2-yl)-2,6-dimethylphenyl)-3,3-dimethylbutanamide]	–
> 100	Cc1cc(N2CCCc3cc(OCCOCC(F)(F)F)ccc3C2)cc(C)c1NC(=O)CC(C)(C)C [Compound 056, N-(2,6-dimethyl-4-(7-(2-(2,2,2-trifluoroethoxy)ethoxy)-1,3,4,5-tetrahydro-2H-benzo[c]azepin-2-yl)phenyl)-3,3-dimethylbutanamide]	–
> 100	Cc1cc(N2CCCc3cc(OCC(F)(F)C(F)F)ccc3C2)cc(C)c1NC(=O)CC(C)(C)C [Compound 057, N-(2,6-dimethyl-4-(7-(2,2,3,3-tetrafluoropropoxy)-1,3,4,5-tetrahydro-2H-benzo[c]azepin-2-yl)phenyl)-3,3-dimethylbutanamide]	–
> 100	Cc1cc(N2CCCc3cc(OCCC(F)(F)F)ccc3C2)cc(C)c1NC(=O)CC(C)(C)C [Compound 058, N-(2,6-dimethyl-4-(7-(3,3,3-trifluoropropoxy)-1,3,4,5-tetrahydro-2H-benzo[c]azepin-2-yl)phenyl)-3,3-dimethylbutanamide]	–
> 100	Cc1cc(N2CCCc3cc(OC4CCC(C(F)(F)F)CC4)ccc3C2)cc(C)c1NC(=O)CC(C)(C)C (centres unmarked) [Compound 059, N-(2,6-dimethyl-4-(7-((4-(trifluoromethyl)cyclohexyl)oxy)-1,3,4,5-tetrahydro-2H-benzo[c]azepin-2-yl)phenyl)-3,3-dimethylbutanamide]	–
> 100	Cc1cc(N2CCCc3cc(OCCCC(F)(F)C(F)(F)F)ccc3C2)cc(C)c1NC(=O)CC(C)(C)C [Compound 061, N-(2,6-dimethyl-4-(7-((4,4,5,5,5-pentafluoropentyl)oxy)-1,3,4,5-tetrahydro-2H-benzo[c]azepin-2-yl)phenyl)-3,3-dimethylbutanamide]	–
